Test results taken from the supplement of paper PMC11451515.

Assays:
Settings in all cases: 48 h
NOMO1 [1] = assay: AUC of viability dose-response curve (% viability x log10 dose units); higher = less sensitive
How it was run: (§1)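 Viability of medium-adapted leukemia cells was measured by CellTiter-Glo One luminescence after 48 h at 37°C with library compounds in DMSO. Doses were 11 threefold steps from 47 μM to 0.79 nM, in 1536-well plates at 500 or 1000 cells/well. Signals were normalised per plate to DMSO and cell-free wells and fitted with a four-parameter log-logistic model on log10 dose. Area under the curve was integrated by trapezoidal rule, with curves exceeding full viability scaled and failed quality-control curves removed.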

P12-Ichikawa [2] = assay: as above
How it was run: as §1

SEM cells [3] = assay: as above
How it was run: as §1

NOMO1 [4] = assay: cell viability relative to DMSO control; higher = less cytotoxic
How it was run: (§2)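 NOMO1, SEM and P12-Ichikawa leukemia cells spent at least four passages adapting to each medium before use. They were seeded at 500 cells/well (NOMO1, SEM) or 1000 cells/well (P12-Ichikawa) in 5 μl in 1536-well plates and pin-dosed with library compounds in DMSO at 11 threefold steps from 47 μM down to 0.79 nM. After 48 h at 37°C, CellTiter-Glo One luminescence was read. Viability is reported as a percentage of the DMSO wells on each plate, with cell-free wells as background.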

P12-Ichikawa [5] = assay: as above
How it was run: as §2

SEM cells [6] = assay: as above
How it was run: as §2

CC[C@H]1OC(=O)[C@H](C)[C@@H](O[C@H]2C[C@@](C)(OC)[C@@H](O)[C@H](C)O2)[C@H](C)[C@@H](O[C@@H]2O[C@H](C)C[C@H](N(C)C)[C@H]2O)[C@](C)(O)C[C@@H](C)/C(=N\OCOCCOC)[C@H](C)[C@@H](O)[C@]1(C)O
AUC of viability dose-response curve
Settings | NOMO1 [1] | P12-Ichikawa [2] | SEM cells [3]
HPLM + 10% dialyzed FBS | 409 | 423 | 423
RPMI 5 mM glucose + 10% FBS | 424 | 390 | 444
RPMI 5 mM glucose + 10% dialyzed FBS | 374 | 407 | 465

cell viability [%]
Settings | NOMO1 [4] | P12-Ichikawa [5] | SEM cells [6]
HPLM + 10% dialyzed FBS, 0.000781 µM | 101 | 92.4 | 95.3
HPLM + 10% dialyzed FBS, 0.00234 µM | 95.6 | 96.1 | 89
HPLM + 10% dialyzed FBS, 0.00702 µM | 86 | 93.5 | 95.1
HPLM + 10% dialyzed FBS, 0.0211 µM | 89.4 | 90.4 | 95.3
HPLM + 10% dialyzed FBS, 0.0632 µM | 92.9 | 102 | 105
HPLM + 10% dialyzed FBS, 0.19 µM | 89.6 | 87.8 | 83.1
HPLM + 10% dialyzed FBS, 0.569 µM | 78.6 | 87.3 | 76.7
HPLM + 10% dialyzed FBS, 1.71 µM | 75.3 | 82.9 | 93.6
HPLM + 10% dialyzed FBS, 5.12 µM | 80.1 | 86.4 | 85.2
HPLM + 10% dialyzed FBS, 15.4 µM | 68.5 | 76.9 | 80.5
HPLM + 10% dialyzed FBS, 46.1 µM | 85.5 | 77.3 | 73.4
RPMI 5 mM glucose + 10% FBS, 0.000781 µM | 85.2 | 81.3 | 107
RPMI 5 mM glucose + 10% FBS, 0.00234 µM | 92 | 85 | 98.1
RPMI 5 mM glucose + 10% FBS, 0.00702 µM | 95 | 84.9 | 109
RPMI 5 mM glucose + 10% FBS, 0.0211 µM | 84.6 | 88.3 | 108
RPMI 5 mM glucose + 10% FBS, 0.0632 µM | 89.5 | 94.3 | 111
RPMI 5 mM glucose + 10% FBS, 0.19 µM | 90.7 | 76.8 | 87.4
RPMI 5 mM glucose + 10% FBS, 0.569 µM | 87.3 | 72.4 | 94.6
RPMI 5 mM glucose + 10% FBS, 1.71 µM | 88.9 | 73.1 | 97.5
RPMI 5 mM glucose + 10% FBS, 5.12 µM | 90.9 | 82.3 | 96.9
RPMI 5 mM glucose + 10% FBS, 15.4 µM | 91.1 | 82.4 | 87.9
RPMI 5 mM glucose + 10% FBS, 46.1 µM | 82 | 79.6 | 95.6
RPMI 5 mM glucose + 10% dialyzed FBS, 0.000781 µM | 85.9 | 89.2 | 103
RPMI 5 mM glucose + 10% dialyzed FBS, 0.00234 µM | 79.3 | 90.1 | 104
RPMI 5 mM glucose + 10% dialyzed FBS, 0.00702 µM | 83.3 | 90.2 | 107
RPMI 5 mM glucose + 10% dialyzed FBS, 0.0211 µM | 74.1 | 91.6 | 116
RPMI 5 mM glucose + 10% dialyzed FBS, 0.0632 µM | 76.6 | 112 | 108
RPMI 5 mM glucose + 10% dialyzed FBS, 0.19 µM | 69.5 | 72 | 96.3
RPMI 5 mM glucose + 10% dialyzed FBS, 0.569 µM | 72.1 | 61.3 | 92.9
RPMI 5 mM glucose + 10% dialyzed FBS, 1.71 µM | 82.1 | 85.2 | 103
RPMI 5 mM glucose + 10% dialyzed FBS, 5.12 µM | 80.1 | 81.9 | 100
RPMI 5 mM glucose + 10% dialyzed FBS, 15.4 µM | 79.8 | 71.5 | 93.8
RPMI 5 mM glucose + 10% dialyzed FBS, 46.1 µM | 79.8 | 94.3 | 71.7
